Where two headings read alike, the source gives them in different places.
Columns and labels:
Experiment in all cases: biochemical
[1] = target: T1, panel of 374 wild-type kinases (Homo sapiens, UniProt P15056); conditions: read-out: % Enzyme Activity (relative to DMSO controls), BRAF
T1 construct: purchased Reaction Biology Corporation

[2] = target: T2, panel of 374 wild-type kinases (Homo sapiens, UniProt Q9UHD2); conditions: read-out: % Enzyme Activity (relative to DMSO controls), kinase TBK1
T2 construct: purchased Reaction Biology Corporation
T2 sequence (Q9UHD2 1-729): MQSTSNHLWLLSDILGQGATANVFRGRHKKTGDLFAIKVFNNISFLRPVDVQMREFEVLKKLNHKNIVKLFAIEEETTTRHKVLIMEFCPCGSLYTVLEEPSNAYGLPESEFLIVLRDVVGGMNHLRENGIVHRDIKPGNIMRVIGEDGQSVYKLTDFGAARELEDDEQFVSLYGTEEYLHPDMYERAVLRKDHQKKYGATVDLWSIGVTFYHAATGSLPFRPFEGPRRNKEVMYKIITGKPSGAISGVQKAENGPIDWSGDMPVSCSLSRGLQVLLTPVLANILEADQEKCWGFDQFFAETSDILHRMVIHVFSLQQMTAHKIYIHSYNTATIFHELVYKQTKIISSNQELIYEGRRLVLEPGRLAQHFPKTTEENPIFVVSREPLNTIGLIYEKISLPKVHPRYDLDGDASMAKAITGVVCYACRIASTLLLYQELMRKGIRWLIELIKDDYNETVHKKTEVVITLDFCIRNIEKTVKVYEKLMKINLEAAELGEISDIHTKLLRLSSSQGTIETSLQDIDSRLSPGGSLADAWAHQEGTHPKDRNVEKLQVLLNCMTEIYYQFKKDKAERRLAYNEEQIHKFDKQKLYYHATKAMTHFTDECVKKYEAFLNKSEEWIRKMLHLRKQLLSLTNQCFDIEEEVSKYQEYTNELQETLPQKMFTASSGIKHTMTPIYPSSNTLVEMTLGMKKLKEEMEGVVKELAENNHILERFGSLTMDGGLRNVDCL

[3] = target: T3, panel of 374 wild-type kinases (Homo sapiens, UniProt P49674); conditions: read-out: % Enzyme Activity (relative to DMSO controls), CK1epsilon
T3 construct: purchased Reaction Biology Corporation

[4] = target: T4, panel of 374 wild-type kinases (Homo sapiens, UniProt P19784); conditions: CK2a2, read-out: % Enzyme Activity (relative to DMSO controls)
T4 construct: purchased Reaction Biology Corporation

[5] = target: T5, panel of 374 wild-type kinases (Homo sapiens, UniProt P04626); conditions: read-out: % Enzyme Activity (relative to DMSO controls), ERBB2/HER2
T5 construct: purchased Reaction Biology Corporation

[6] = target: T6, panel of 374 wild-type kinases (Homo sapiens, UniProt P53778); conditions: read-out: % Enzyme Activity (relative to DMSO controls), kinase P38g
T6 construct: purchased Reaction Biology Corporation
T6 sequence (P53778 1-367): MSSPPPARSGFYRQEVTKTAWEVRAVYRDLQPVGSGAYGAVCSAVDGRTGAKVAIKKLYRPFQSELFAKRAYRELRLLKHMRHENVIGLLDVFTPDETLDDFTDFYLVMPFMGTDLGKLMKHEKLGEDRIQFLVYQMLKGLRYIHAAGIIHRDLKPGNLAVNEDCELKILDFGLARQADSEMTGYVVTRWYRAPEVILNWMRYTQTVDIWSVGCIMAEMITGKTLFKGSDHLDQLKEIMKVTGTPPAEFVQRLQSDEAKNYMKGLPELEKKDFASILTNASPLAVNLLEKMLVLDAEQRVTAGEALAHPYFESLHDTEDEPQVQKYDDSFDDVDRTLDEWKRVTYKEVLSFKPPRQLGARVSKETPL

[7] = target: T7, panel of 374 wild-type kinases (Homo sapiens, UniProt P57059)
T7 construct: purchased Reaction Biology Corporation

[8] = target: T8, panel of 374 wild-type kinases (Homo sapiens, UniProt Q13164); conditions: read-out: % Enzyme Activity (relative to DMSO controls), ERK5/MAPK7
T8 construct: purchased Reaction Biology Corporation

[9] = target: T9, panel of 374 wild-type kinases (Homo sapiens, UniProt P11802)
T9 construct: purchased Reaction Biology Corporation

[10] = target: T10, panel of 374 wild-type kinases (Homo sapiens, UniProt Q96PF2); conditions: read-out: % Enzyme Activity (relative to DMSO controls), kinase TSSK2
T10 construct: purchased Reaction Biology Corporation
T10 sequence (Q96PF2 1-358): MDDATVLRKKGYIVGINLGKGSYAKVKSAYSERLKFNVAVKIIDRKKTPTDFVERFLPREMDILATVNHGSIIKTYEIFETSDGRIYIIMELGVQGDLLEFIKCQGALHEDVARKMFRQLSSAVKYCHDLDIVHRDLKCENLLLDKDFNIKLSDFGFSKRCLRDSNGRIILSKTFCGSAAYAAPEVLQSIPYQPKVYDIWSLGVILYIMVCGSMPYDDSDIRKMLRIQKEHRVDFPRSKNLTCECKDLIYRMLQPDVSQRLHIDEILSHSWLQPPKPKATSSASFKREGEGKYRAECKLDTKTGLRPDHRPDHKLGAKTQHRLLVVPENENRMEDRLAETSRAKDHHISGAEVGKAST

[11] = read-out: % Enzyme Activity (relative to DMSO controls), CDK4/cyclin D1
[12] = read-out: % Enzyme Activity (relative to DMSO controls), CDK4/cyclin D3

T4 sequence (P19784 whole entry): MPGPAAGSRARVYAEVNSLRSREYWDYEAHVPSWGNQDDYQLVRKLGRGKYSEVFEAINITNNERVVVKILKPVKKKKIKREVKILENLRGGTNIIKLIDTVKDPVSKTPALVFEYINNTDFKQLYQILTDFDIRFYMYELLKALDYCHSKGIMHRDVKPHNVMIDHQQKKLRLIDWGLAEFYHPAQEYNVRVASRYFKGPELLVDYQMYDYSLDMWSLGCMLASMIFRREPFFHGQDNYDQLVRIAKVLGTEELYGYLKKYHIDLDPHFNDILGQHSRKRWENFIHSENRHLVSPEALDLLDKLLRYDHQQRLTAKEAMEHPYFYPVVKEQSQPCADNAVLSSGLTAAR
T1 sequence (P15056 whole entry): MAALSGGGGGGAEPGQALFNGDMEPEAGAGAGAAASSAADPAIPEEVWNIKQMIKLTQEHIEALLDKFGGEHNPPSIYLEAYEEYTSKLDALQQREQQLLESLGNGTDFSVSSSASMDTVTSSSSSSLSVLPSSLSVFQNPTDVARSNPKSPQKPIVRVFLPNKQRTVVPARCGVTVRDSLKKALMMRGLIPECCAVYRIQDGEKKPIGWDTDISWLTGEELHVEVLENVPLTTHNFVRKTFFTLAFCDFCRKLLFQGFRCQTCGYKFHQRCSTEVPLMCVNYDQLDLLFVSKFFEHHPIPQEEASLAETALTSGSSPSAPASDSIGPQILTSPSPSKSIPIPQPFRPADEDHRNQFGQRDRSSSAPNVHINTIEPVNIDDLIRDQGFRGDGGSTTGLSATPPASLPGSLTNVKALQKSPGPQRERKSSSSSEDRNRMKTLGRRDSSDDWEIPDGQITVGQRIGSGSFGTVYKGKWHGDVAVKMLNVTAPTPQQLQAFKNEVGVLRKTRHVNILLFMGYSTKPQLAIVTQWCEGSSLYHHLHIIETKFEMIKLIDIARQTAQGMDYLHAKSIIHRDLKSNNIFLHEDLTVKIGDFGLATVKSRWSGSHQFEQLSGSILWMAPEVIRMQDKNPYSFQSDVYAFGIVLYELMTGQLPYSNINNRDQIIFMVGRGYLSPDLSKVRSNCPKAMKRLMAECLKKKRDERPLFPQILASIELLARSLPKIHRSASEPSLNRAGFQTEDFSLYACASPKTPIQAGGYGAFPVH
T7 sequence (P57059 whole entry): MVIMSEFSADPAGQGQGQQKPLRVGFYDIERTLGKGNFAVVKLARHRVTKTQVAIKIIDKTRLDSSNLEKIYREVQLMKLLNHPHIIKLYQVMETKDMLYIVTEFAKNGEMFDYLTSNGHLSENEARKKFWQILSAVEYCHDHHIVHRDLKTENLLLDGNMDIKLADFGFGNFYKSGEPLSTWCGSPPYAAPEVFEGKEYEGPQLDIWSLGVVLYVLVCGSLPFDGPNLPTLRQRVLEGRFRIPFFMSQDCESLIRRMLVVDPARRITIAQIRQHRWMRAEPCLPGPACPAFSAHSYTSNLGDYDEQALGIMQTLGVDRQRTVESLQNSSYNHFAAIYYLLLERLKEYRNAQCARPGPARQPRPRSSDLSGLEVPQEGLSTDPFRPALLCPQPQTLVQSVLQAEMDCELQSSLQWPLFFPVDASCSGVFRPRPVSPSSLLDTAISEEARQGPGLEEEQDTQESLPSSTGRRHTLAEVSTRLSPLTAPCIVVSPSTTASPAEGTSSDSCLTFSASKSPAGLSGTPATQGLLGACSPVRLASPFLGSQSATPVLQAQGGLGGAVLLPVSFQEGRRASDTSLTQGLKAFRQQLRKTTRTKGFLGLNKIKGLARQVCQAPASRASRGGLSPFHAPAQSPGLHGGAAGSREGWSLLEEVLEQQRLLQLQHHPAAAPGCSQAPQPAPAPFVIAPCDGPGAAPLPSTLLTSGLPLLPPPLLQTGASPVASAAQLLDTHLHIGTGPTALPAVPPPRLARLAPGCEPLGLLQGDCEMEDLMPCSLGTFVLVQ
T8 sequence (Q13164 whole entry): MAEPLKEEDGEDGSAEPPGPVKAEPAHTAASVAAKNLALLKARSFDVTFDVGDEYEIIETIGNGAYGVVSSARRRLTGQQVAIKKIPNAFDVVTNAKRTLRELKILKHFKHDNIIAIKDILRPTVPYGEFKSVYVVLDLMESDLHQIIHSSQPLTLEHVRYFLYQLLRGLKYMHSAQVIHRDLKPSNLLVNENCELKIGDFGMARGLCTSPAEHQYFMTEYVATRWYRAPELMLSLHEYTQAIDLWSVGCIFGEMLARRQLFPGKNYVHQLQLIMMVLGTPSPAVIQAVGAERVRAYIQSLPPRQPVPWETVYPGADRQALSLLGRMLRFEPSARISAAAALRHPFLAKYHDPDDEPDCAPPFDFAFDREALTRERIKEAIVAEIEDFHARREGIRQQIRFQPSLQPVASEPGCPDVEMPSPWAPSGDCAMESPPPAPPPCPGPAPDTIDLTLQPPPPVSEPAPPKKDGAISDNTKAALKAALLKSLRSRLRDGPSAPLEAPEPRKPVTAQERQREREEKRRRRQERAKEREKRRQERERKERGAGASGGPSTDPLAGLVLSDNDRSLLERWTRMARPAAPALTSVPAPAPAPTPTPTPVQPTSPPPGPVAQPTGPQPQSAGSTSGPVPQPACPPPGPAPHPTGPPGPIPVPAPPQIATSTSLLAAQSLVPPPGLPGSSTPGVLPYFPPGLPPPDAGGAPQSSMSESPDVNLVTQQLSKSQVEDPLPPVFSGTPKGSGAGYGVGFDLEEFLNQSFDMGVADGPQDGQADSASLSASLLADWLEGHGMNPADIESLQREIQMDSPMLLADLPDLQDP
T3 sequence (P49674 whole entry): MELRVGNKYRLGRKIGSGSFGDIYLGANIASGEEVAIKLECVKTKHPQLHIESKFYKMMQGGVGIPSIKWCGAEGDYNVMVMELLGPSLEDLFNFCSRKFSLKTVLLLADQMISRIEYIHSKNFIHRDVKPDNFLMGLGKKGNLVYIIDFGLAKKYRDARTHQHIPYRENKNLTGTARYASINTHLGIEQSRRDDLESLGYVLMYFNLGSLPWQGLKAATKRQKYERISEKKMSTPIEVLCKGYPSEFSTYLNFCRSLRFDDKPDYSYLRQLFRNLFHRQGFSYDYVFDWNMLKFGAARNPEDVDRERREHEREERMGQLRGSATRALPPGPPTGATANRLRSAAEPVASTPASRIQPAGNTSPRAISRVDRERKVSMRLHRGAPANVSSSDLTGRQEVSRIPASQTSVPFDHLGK
T9 sequence (P11802 whole entry): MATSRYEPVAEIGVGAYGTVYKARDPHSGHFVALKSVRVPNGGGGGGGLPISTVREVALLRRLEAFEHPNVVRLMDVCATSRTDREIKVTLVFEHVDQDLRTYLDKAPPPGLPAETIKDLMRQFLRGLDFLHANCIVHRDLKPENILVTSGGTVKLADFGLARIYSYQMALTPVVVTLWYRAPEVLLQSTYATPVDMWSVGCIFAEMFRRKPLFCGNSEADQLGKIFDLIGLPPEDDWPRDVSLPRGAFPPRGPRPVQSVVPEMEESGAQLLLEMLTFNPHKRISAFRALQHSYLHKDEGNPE
T5 sequence (P04626 23-1255): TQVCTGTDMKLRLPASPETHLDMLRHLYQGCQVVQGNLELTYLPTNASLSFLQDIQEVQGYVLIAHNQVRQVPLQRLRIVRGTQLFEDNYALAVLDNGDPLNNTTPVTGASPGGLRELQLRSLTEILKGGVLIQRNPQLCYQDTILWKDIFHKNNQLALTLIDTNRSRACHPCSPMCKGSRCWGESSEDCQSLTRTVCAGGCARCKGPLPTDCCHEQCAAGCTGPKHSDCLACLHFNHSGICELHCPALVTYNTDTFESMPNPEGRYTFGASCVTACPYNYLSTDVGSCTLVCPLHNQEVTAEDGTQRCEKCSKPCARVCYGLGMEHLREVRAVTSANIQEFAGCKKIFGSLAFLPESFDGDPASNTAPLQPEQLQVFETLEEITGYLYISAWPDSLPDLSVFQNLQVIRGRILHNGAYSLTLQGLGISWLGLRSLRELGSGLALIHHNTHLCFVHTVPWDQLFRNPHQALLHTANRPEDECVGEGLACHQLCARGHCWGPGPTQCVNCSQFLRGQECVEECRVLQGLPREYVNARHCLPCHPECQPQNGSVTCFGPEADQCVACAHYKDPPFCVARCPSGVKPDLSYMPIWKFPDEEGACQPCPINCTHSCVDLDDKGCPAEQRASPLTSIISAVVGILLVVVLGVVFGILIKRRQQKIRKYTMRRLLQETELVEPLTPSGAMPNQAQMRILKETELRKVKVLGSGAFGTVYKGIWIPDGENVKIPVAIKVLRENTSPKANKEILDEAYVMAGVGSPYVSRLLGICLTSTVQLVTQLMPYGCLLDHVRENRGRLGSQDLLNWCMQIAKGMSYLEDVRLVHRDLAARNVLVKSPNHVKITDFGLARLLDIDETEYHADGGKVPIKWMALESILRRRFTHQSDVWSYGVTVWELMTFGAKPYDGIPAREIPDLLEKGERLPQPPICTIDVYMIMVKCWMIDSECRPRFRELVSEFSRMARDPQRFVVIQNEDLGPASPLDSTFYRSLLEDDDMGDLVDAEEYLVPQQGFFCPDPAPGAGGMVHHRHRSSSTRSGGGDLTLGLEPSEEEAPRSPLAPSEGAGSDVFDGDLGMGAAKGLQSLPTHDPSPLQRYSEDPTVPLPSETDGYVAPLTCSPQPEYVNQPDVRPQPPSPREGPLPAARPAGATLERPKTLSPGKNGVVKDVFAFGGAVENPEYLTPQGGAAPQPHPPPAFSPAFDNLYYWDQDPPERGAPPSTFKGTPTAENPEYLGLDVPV

| Compound | remaining activity at 5 µM [1] | remaining activity at 5 µM [2] | remaining activity at 5 µM [3] | remaining activity at 5 µM [4] | remaining activity at 5 µM [5] | remaining activity at 5 µM [6] | remaining activity at 5 µM [8] | remaining activity at 5 µM [9, 11] | remaining activity at 5 µM [9, 12] | remaining activity at 5 µM [10] | further results |
| --- | --- | --- | --- | --- | --- | --- | --- | --- | --- | --- | --- |
| O=C(Nc1cnn(-c2csc(C(=O)NC3COC3)c2)c1)Nc1ccccc1Cl [Compound 17, 4-(4-(3-(2-chlorophenyl)ureido)-1H-pyrazol-1-yl)-N-(oxetan-3-yl)thiophene-2-carboxamide] | 93.3% | 102% | 89.6% | 97.3% | 103% | 99.4% | 119% | 92.2% | 98.2% | 91.5% | remaining activity at 5 µM ([7]; read-out: % Enzyme Activity (relative to DMSO controls), kinase SIK1): 102% |
| Cc1sc(C(=O)NC2COC2)cc1-n1cc(NC(=O)Nc2c(F)cccc2Cl)cn1 [Compound 27, 4-(4-(3-(2-chloro-6-fluorophenyl)ureido)-1H-pyrazol-1-yl)-5-methyl-N-(oxetan-3-yl)thiophene-2-carboxamide] |  |  |  |  |  |  |  |  |  |  | remaining activity at 10 µM ([1]; 10 uM): 105%; remaining activity at 10 µM ([2]; 10 uM): 97.8%; remaining activity at 10 µM ([3]; 10 uM): 97.9%; remaining activity at 10 µM ([4]; 10 uM): 95.5%; remaining activity at 10 µM ([5]; 10 uM): 64.1%; remaining activity at 10 µM ([6]; 10 uM): 90.5%; remaining activity at 10 µM ([7]; read-out: % Enzyme Activity (relative to DMSO controls), kinase SIK1, 10 uM): 99.8%; remaining activity at 10 µM ([8]; 10 uM): 95.7%; remaining activity at 10 µM [9, 11]: 78%; remaining activity at 10 µM [9, 12]: 96.5%; remaining activity at 10 µM ([10]; 10 uM): 84.7% |
| O=C(Nc1cnn(-c2csc(C(=O)NC3COC3)c2)c1)Nc1c(F)cccc1Cl [Compound 25, 4-(4-(3-(2-chloro-6-fluorophenyl)ureido)-1H-pyrazol-1-yl)-N-(oxetan-3-yl)thiophene-2-carboxamide] | 99.9% | 98.8% | 88.6% | 96.6% | 97% | 98.3% | 75.9% | 90.3% | 79.4% | 95.1% | remaining activity at 5 µM ([7]; kinase SIK1, read-out: % Enzyme Activity (relative to DMSO controls)): 98.3% |

Source: patent US20240246942A1, “KINASE INHIBITORS FOR THE TREATMENT OF NEURODEGENERATIVE DISEASES” (priority 2020, published 2024)
